Experimental data as given in patent US4009273A, “Substituted 10,11-dihydro-5,10-imino-[5H] dibenzo (a,d)-cycloheptene” (priority 1972, dated 1977).

Tests used:
Acute toxicity = settings: mouse, in vivo, ip, Swiss mice, observed for a week
Experimental: The acute toxicity was determined on groups of Swiss mice weighing 18 to 22 g and the test products were administered intraperitoneally in increasing doses and the animals were kept under observation for a week.

amphetamine deaths = assay: Amphetamine toxicity in mice; format: in vivo, mice (female); settings: mortality at 4 h
Experimental: The test was effected on group of 10 female mice weighing between 18 and 22 g kept at 27° C for the duration of the test. The test products were intraperitoneally administered in different doses in a volume of 0.01 ml /g of mouse. One hour later, the mice received an injection of 15 mg/kg of a solution of 1.5 mg of amphetamine per ml of physiological serum. The mortality 4 hours after the amphetamine injection was determined and the results were expressed as a ratio of number of dead animals to number of starting animals.

[1] = tested on: pentamethylenetetrazol convulsions; assay: Anticonvulsant effect (pentamethylenetetrazol perfusion); format: in vivo, mice (female); settings: 1 h before perfusion
Experimental: The anticonvulsant activity of the compounds was determined on groups of 10 female mice with intraperitoneal administration of the test compounds in acid solution at different doses and the control group received only the solvent. One hour after the injection, the mice were perfused with a solution of pentamethylenetetrazol in physiological serum at a concentration of 3 mg/ml. The perfusion was intraveinous at a rate of 1 ml per minute and in the course of the perfusion, the progress of introxication was characterized by the following 3 criteria:
a. Threshold of convulsant effect (myoclonia of the ears)
b. Crisis of clonic convulsions
c. Tonic convulsion with apnea and generally followed by death.

amytal sleeping time = assay: Potentialization of sleeping time (amytal); format: in vivo, mice (female); settings: 1 h before 80 mg/kg amytal i.v.
Experimental: The potentialization of sleeping time was determined with a test using amytal [5-ethyl-5-isoamyl-barbituric acid] in which groups of female mice weighing between 18 and 22 g were kept at 25° C for the duration of the test. The test products were administered intraperitoneally at different doses one hour before intraveinous injection of 80 mg/kg of amytal and the sleeping time was noted which is the time while the reflux of straightening in the mice was negative.

[2] = 2 mg/Kg i.p., 1 h before 15 mg/kg amphetamine
[3] = 5 mg/Kg i.p., 1 h before 15 mg/kg amphetamine
[4] = 10 mg/Kg i.p., 1 h before 15 mg/kg amphetamine
[5] = 20 mg/Kg i.p., 1 h before 15 mg/kg amphetamine

Structure (SMILES): CCOC(=O)N1C2Cc3ccccc3C1c1ccccc12 (stereo not drawn) [Example 17, 12-carbethoxy-10,11-dihydro-5,10imino-[5H]-dibenzo (a,d) cycloheptene dl]
- LD50 at 168 h (Acute toxicity): 1000 mg/kg

Structure (SMILES): c1ccc2c(c1)CC1NC2c2ccccc21 (stereo not drawn) [Example 1, 10,11-dihydro-5,10-imino-[5H]-dibenzo (a,d) cycloheptene dl]
- ratio of number of dead animals to number of starting animals (amphetamine deaths; 1 mg/Kg i.p., 1 h before 15 mg/kg amphetamine): 10/10
- ratio of number of dead animals to number of starting animals (amphetamine deaths; [2]): 5/10
- ratio of number of dead animals to number of starting animals (amphetamine deaths; 200γ/Kg i.p., 1 h before 15 mg/kg amphetamine): 9/10
- ratio of number of dead animals to number of starting animals (amphetamine deaths; 500γ/Kg i.p., 1 h before 15 mg/kg amphetamine): 9/10
- LD50 at 168 h (Acute toxicity): 150 mg/kg

Structure (SMILES): C[N+]1(C)C2Cc3ccccc3C1c1ccccc12 (stereo not drawn) [Example 16, 12-methyl-10,11-dihydro-5,10-imino-[5H]-dibenzo (a,d) cycloheptene dl iodomethylate]
- LD50 at 168 h (Acute toxicity): > 200 mg/kg

Structure (SMILES): CP(C)(=O)CN1C2Cc3ccccc3C1c1ccccc12 (stereo not drawn) [Example 9, 12-dimethylphosphorosomethyl-10.11-dihydro-5,10-imino-[5H]-dibenzo (a,d) cycloheptene dl]
- LD50 at 168 h (Acute toxicity): 350 mg/kg

Structure (SMILES): CC(=O)N1C2Cc3ccccc3C1c1ccccc12 (stereo not drawn) [Example 10, 12-acetyl-10,11-dihydro-5,10-imino-5H]-dibenzo (a,d) cycloheptene dl]
- LD50 at 168 h (Acute toxicity): > 500 mg/kg

Structure (SMILES): CCCN1C2Cc3ccccc3C1c1ccccc12 (stereo not drawn) [Example 24, 12-n-propyl-10,11-dihydro-5,10-imino[5H]-dibenzo (a,d) cycloheptene dl]
- ratio of number of dead animals to number of starting animals (amphetamine deaths; [3]): 10/10
- ratio of number of dead animals to number of starting animals (amphetamine deaths; [4]): 9/10
- ratio of number of dead animals to number of starting animals (amphetamine deaths; [5]): 3/10
- Dose of pentamethylenetetrazol, Clonic Crisis ([1]; 1 mg/Kg i.p.): 61.8 mg/kg
- Dose of pentamethylenetetrazol, Myoclonia ([1]; 1 mg/Kg i.p.): 54.2 mg/kg
- Dose of pentamethylenetetrazol, Tonic Crisis ([1]; 1 mg/Kg i.p.): 170.3 mg/kg
- Dose of pentamethylenetetrazol, Clonic Crisis ([1]; 2 mg/Kg i.p.): 57.3 mg/kg
- Dose of pentamethylenetetrazol, Myoclonia ([1]; 2 mg/Kg i.p.): 50.4 mg/kg
- Dose of pentamethylenetetrazol, Tonic Crisis ([1]; 2 mg/Kg i.p.): 225.8 mg/kg
- Dose of pentamethylenetetrazol, Clonic Crisis ([1]; 5 mg/Kg i.p.): 60.0 mg/kg
- Dose of pentamethylenetetrazol, Myoclonia ([1]; 5 mg/Kg i.p.): 51.4 mg/kg
- Dose of pentamethylenetetrazol, Tonic Crisis ([1]; 5 mg/Kg i.p.): 265.2 mg/kg
- Dose of pentamethylenetetrazol, Clonic Crisis ([1]; 10 mg/Kg i.p.): 78.4 mg/kg
- Dose of pentamethylenetetrazol, Myoclonia ([1]; 10 mg/Kg i.p.): 57.7 mg/kg
- Dose of pentamethylenetetrazol, Tonic Crisis ([1]; 10 mg/Kg i.p.): 275.9 mg/kg
- average sleeping time (amytal sleeping time; 2 mg/Kg i.p.): 38.6 min
- average sleeping time (amytal sleeping time; 5 mg/Kg i.p.): 42.2 min
- average sleeping time (amytal sleeping time; 10 mg/Kg i.p.): 65.1 min
- average sleeping time (amytal sleeping time; 20 mg/Kg i.p.): 103.7 min
- LD50 at 168 h (Acute toxicity): ~250 mg/kg

Structure (SMILES): c1ccc(CN2C3Cc4ccccc4C2c2ccccc23)cc1 (stereo not drawn) [Example 23, 12-benzyl-10,11-dihydro-5,10-imino-[5H]-dibenzo (a,d) cycloheptene dl]
- LD50 at 168 h (Acute toxicity): > 400 mg/kg

Structure (SMILES): C=CCN1C2Cc3ccccc3C1c1ccccc12 (stereo not drawn) [Example 19, 12-allyl-10,11-dihydro-5,10-imino-[5H]-dibenzo (a,d) cyclo-heptene dl]
- Dose of pentamethylenetetrazol, Clonic Crisis ([1]; 2 mg/Kg i.p.): 50.0 mg/kg
- Dose of pentamethylenetetrazol, Myoclonia ([1]; 2 mg/Kg i.p.): 44.8 mg/kg
- Dose of pentamethylenetetrazol, Tonic Crisis ([1]; 2 mg/Kg i.p.): 150.8 mg/kg
- Dose of pentamethylenetetrazol, Clonic Crisis ([1]; 5 mg/Kg i.p.): 49.8 mg/kg
- Dose of pentamethylenetetrazol, Myoclonia ([1]; 5 mg/Kg i.p.): 44.5 mg/kg
- Dose of pentamethylenetetrazol, Tonic Crisis ([1]; 5 mg/Kg i.p.): 136.0 mg/kg
- Dose of pentamethylenetetrazol, Clonic Crisis ([1]; 10 mg/Kg i.p.): 52.4 mg/kg
- Dose of pentamethylenetetrazol, Myoclonia ([1]; 10 mg/Kg i.p.): 47.4 mg/kg
- Dose of pentamethylenetetrazol, Tonic Crisis ([1]; 10 mg/Kg i.p.): 241.9 mg/kg
- Dose of pentamethylenetetrazol, Clonic Crisis ([1]; 20 mg/Kg i.p.): 54.7 mg/kg
- Dose of pentamethylenetetrazol, Myoclonia ([1]; 20 mg/Kg i.p.): 49.2 mg/kg
- Dose of pentamethylenetetrazol, Tonic Crisis ([1]; 20 mg/Kg i.p.): 271.8 mg/kg
- average sleeping time (amytal sleeping time; 2 mg/Kg i.p.): 37.1 min
- average sleeping time (amytal sleeping time; 5 mg/Kg i.p.): 65.1 min
- average sleeping time (amytal sleeping time; 10 mg/Kg i.p.): 71.7 min
- average sleeping time (amytal sleeping time; 20 mg/Kg i.p.): > 120 min
- LD50 at 168 h (Acute toxicity): 350 mg/kg

Structure (SMILES): CN1C2Cc3ccccc3C1c1ccc(Cl)cc12 (stereo not drawn) [Example 26, 8-chloro-12-methyl-10,11-dihydro-5,10-imino-[5H]-dibenzo (a,d) cycloheptene dl]
- ratio of number of dead animals to number of starting animals (amphetamine deaths; [3]): 10/10
- ratio of number of dead animals to number of starting animals (amphetamine deaths; [4]): 10/10
- ratio of number of dead animals to number of starting animals (amphetamine deaths; [5]): 10/10
- ratio of number of dead animals to number of starting animals (amphetamine deaths; head prints only "mg/Kg" (dose figure missing), i.p.): 1/9
- Dose of pentamethylenetetrazol, Clonic Crisis ([1]; 5 mg/Kg i.p.): 50.8 mg/kg
- Dose of pentamethylenetetrazol, Myoclonia ([1]; 5 mg/Kg i.p.): 43.9 mg/kg
- Dose of pentamethylenetetrazol, Tonic Crisis ([1]; 5 mg/Kg i.p.): 128 mg/kg
- Dose of pentamethylenetetrazol, Clonic Crisis ([1]; 10 mg/Kg i.p.): 52.0 mg/kg
- Dose of pentamethylenetetrazol, Myoclonia ([1]; 10 mg/Kg i.p.): 44.1 mg/kg
- Dose of pentamethylenetetrazol, Tonic Crisis ([1]; 10 mg/Kg i.p.): 174.7 mg/kg
- Dose of pentamethylenetetrazol, Clonic Crisis ([1]; 20 mg/Kg i.p.): 56.4 mg/kg
- Dose of pentamethylenetetrazol, Myoclonia ([1]; 20 mg/Kg i.p.): 49.7 mg/kg
- Dose of pentamethylenetetrazol, Tonic Crisis ([1]; 20 mg/Kg i.p.): 230.2 mg/kg
- Dose of pentamethylenetetrazol, Clonic Crisis ([1]; 50 mg/Kg i.p.): 66.7 mg/kg
- Dose of pentamethylenetetrazol, Myoclonia ([1]; 50 mg/Kg i.p.): 52.6 mg/kg
- Dose of pentamethylenetetrazol, Tonic Crisis ([1]; 50 mg/Kg i.p.): 274.2 mg/kg
- average sleeping time (amytal sleeping time; 5 mg/Kg i.p.): 22.6 min
- average sleeping time (amytal sleeping time; 10 mg/Kg i.p.): 27.4 min
- average sleeping time (amytal sleeping time; 20 mg/Kg i.p.): 36.0 min
- average sleeping time (amytal sleeping time; 50 mg/Kg i.p.): 94.5 min
- LD50 at 168 h (Acute toxicity): ~350 mg/kg

Structure (SMILES): O=C(Oc1ccccc1[N+](=O)[O-])N1C2Cc3ccccc3C1c1ccccc12 (stereo not drawn) [Example 8, 12-(o-nitrophenoxycarbonyl)-10,11-dihydro-5,10-imino-[5H]-dibenzo (a,d) cycloheptene dl]
- LD50 at 168 h (Acute toxicity): > 1000 mg/kg

Structure (SMILES): NC(=O)N1C2Cc3ccccc3C1c1ccccc12 (stereo not drawn) [Example 13, 12-carbamoyl-10,11-dihydro-5,10-imino-[5H]-dibenzo (a,d) cycloheptene dl]
- LD50 at 168 h (Acute toxicity): 1000 mg/kg

Structure (SMILES): CNCC(=O)N1C2Cc3ccccc3C1c1ccccc12 (stereo not drawn) [Example 25, 12-(methylaminoacetyl)-10,11-dihydro-5,10-imino-[5H]-dibenzo (a,d) cycloheptene dl]
- LD50 at 168 h (Acute toxicity): ~300 mg/kg

Structure (SMILES): C#CCN1C2Cc3ccccc3C1c1ccccc12 (stereo not drawn) [Example 20, 12-propargyl-10,11-dihydro-5,10-imino-[5H]-dibenzo (a,d) cycloheptene dl]
- ratio of number of dead animals to number of starting animals (amphetamine deaths; [2]): 9/10
- ratio of number of dead animals to number of starting animals (amphetamine deaths; [3]): 9/10
- ratio of number of dead animals to number of starting animals (amphetamine deaths; [4]): 7/10
- ratio of number of dead animals to number of starting animals (amphetamine deaths; [5]): 1/10
- Dose of pentamethylenetetrazol, Clonic Crisis ([1]; 0.5 mg/Kg i.p.): 49.1 mg/kg
- Dose of pentamethylenetetrazol, Myoclonia ([1]; 0.5 mg/Kg i.p.): 44.2 mg/kg
- Dose of pentamethylenetetrazol, Tonic Crisis ([1]; 0.5 mg/Kg i.p.): 140.7 mg/kg
- Dose of pentamethylenetetrazol, Clonic Crisis ([1]; 1 mg/Kg i.p.): 46.7 mg/kg
- Dose of pentamethylenetetrazol, Myoclonia ([1]; 1 mg/Kg i.p.): 41.9 mg/kg
- Dose of pentamethylenetetrazol, Tonic Crisis ([1]; 1 mg/Kg i.p.): 146.4 mg/kg
- Dose of pentamethylenetetrazol, Clonic Crisis ([1]; 2 mg/Kg i.p.): 46.2 mg/kg
- Dose of pentamethylenetetrazol, Myoclonia ([1]; 2 mg/Kg i.p.): 41.2 mg/kg
- Dose of pentamethylenetetrazol, Tonic Crisis ([1]; 2 mg/Kg i.p.): 168.5 mg/kg
- Dose of pentamethylenetetrazol, Clonic Crisis ([1]; 5 mg/Kg i.p.): 49.0 mg/kg
- Dose of pentamethylenetetrazol, Myoclonia ([1]; 5 mg/Kg i.p.): 43.9 mg/kg
- Dose of pentamethylenetetrazol, Tonic Crisis ([1]; 5 mg/Kg i.p.): 221.7 mg/kg
- average sleeping time (amytal sleeping time; 0.5 mg/Kg i.p.): 41.8 min
- average sleeping time (amytal sleeping time; 1 mg/Kg i.p.): 46.5 min
- average sleeping time (amytal sleeping time; 2 mg/Kg i.p.): 49.4 min
- average sleeping time (amytal sleeping time; 5 mg/Kg i.p.): 64.9 min
